In patent US7842681B2, “Treatment of myeoproliferative diseases” (Abbott Laboratories, priority 2006, dated 2010):

Columns and labels:
Bcl-w = biological target: T1, Bcl-w (Homo sapiens, UniProt Q92843); assay: Binding to Bcl-w
T1 sequence (Q92843 1-193): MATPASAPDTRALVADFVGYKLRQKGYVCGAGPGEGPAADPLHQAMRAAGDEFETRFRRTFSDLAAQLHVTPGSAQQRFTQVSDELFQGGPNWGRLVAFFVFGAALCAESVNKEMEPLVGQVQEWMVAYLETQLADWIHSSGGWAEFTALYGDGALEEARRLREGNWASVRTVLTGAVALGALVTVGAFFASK

Bcl-XL = biological target: T2, Bcl-XL (Homo sapiens, UniProt Q07817); assay: Binding to Bcl-XL protein
T2 construct: made in house
T2 sequence (Q07817 whole entry): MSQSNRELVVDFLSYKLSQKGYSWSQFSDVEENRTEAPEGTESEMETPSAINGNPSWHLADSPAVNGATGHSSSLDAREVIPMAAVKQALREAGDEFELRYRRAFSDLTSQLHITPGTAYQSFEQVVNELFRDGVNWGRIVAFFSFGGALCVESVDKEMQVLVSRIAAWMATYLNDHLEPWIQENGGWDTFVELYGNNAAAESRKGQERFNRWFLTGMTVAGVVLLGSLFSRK
Procedure: Binding affinity of compounds to Bcl-XL protein is indicia of their inhibition of the activity of this protein. To determine the binding affinity of compounds to Bcl-XL protein, representative examples were diluted in DMSO to concentrations between 100 μM and 1 μM and added to each well of a 96-well microtiter plate. A mixture comprising 125 μL per well of assay buffer (20 mM phosphate buffer (pH 7.4), 1 mM EDTA, 50 mM NaCl, 0.05% PF-68), 6 nM of Bcl-XL protein (prepared as described in Science 1997, 275, 983-986), 1 nM fluorescein-labeled BAD peptide (prepared in-house) and the DMSO solution of the compound was shaken for 2 minutes and placed in a LJL Analyst (LJL Bio Systems, CA). A negative control (DMSO, 15 nM BAD peptide, assay buffer) and a positive control (DMSO, 1 nM BAD peptide, 6 nM Bcl-XL, assay buffer) were used to determine the range of the assay. Polarization was measured at room temperature using a continuous Fluorescein lamp (excitation 485 nm, emission 530 nm). Percentage of inhibition was determined by (1-((mP value of well-negative control)/range))×100%.

Bcl-2 = assay: Binding to Bcl-2 protein
Procedure: Binding affinity of compounds to Bcl-2 protein is indicia of their inhibition of the activity of this protein. To determine the binding affinity of compounds to Bcl-2, representative examples were diluted in DMSO to concentrations between […] and added to each well of a 96-well microtiter plate. A mixture comprising 125 µL per well of assay buffer (20 mM phosphate buffer (pH 7.4), 1 mM EDTA, 50 mM NaCl, 0.05% PF-68), 10 nM of Bcl-2 protein (prepared according to the procedure described in PNAS 2001, 98, 3012-3017), 1 nM fluorescein-labeled BAX peptide (prepared in-house) and the DMSO solution of the representative example was shaken for 2 minutes and placed in a LJL Analyst (LJL Bio Systems, CA. Polarization was measured at room temperature using a continuous Fluorescein lamp (excitation 485 nm, emission 530 nm). Percentage of inhibition was determined by (1-((mP value of well-negative control)/range))×100%.

circulating platelets [1] = assay: Circulating platelet count in dogs on multiple oral daily dosing; format: in vivo; conditions: male beagle dogs, once daily oral gavage, 2 mg/kg days 2-7, 6 mg/kg days 8-15 (FIG. 5)
Procedure: (§1) The effect of Bcl-2 protein inhibitors on circulating platelets can be determined by administration of test compounds, preferably orally or intravenously, to an animal and analyzing a blood sample and determining the number of platelets by techniques well-known in the art. Preferably, blood samples are obtained from about 2 hours to about 48 hours after compound administration.
Male beagle dogs (n=3/group; 8-12 kg) were treated once daily with N-(4-(4-((2-(4-chlorophenyl)-5,5-dimethyl-1-cyclohex-1-en-1-yl)methyl)piperazin-1-yl)benzoyl)-4-(((1R)-3-(morpholin-4-yl)-1-((phenylsulfanyl)methyl)propyl)amino)-3-((trifluoromethyl)sulfonyl)benzenesulfonamide in 10:90 DMSO/PEG 400 (by volume) by oral gavage at a dose of 2 mg/kg on days 2-7 and at a dose of 6 mg/kg on days 8-15 of the study. Blood samples were collected at baseline and 6 hours post dosing on days 2-5, 8-12 and day 15 from the jugular vein, treated with EDTA and the whole blood analyzed for platelet counts on a Cell-Dyn 3700 (Abbott Laboratories). Percent starting platelet counts (PC) were calculated using the following equation. [1−(PCt=0−PCt=6)/PCt=0]×100%.

platelets = assay: Activation of apoptotic processes in platelets; format: cell-based, dog and human
isolated platelets = assay: Aggregation of isolated platelets; format: cell-based
dog platelets = assay: Viability of dog platelets; format: cell-based
human platelets = assay: Viability of human platelets; format: cell-based
circulating platelets [2] = assay: Circulating platelet count in dogs after a single oral dose; format: in vivo; conditions: male beagle dogs, one 5 mg/kg oral dose (FIG. 1, FIG. 2)
Procedure: as §1
Male beagle dogs (n=3/group; 8-12 kg) were treated with a single dose of 5 mg/kg N-(4-(4-((2-(4-chlorophenyl)-4,4-dimethylcyclohex-1-en-1-yl)methyl)piperazin-1-yl)benzoyl)-4-(((1R)-3-(morpholin-4-yl)-1-((phenylsulfanyl)methyl)propyl)amino)-3-((trifluoromethyl)sulfonyl)benzenesulfonamide in 10:30:60 ethanol/phosal 50 PG/PEG 400 (by weight) by oral gavage. Blood samples were collected at baseline and at the indicated time points from the jugular vein, treated with EDTA and the whole blood analyzed for platelet counts on a Cell-Dyn 3700 (Abbott Laboratories).
Male beagle dogs (n=3/group; 8-12 kg) were treated with a single dose of 5 mg/kg 3-((chloro(difluoro)methyl)sulfonyl)-N-(4-(4-((2-(4-chlorophenyl)-4,4-dimethylcyclohex-1-en-1-yl)methyl)piperazin-1-yl)benzoyl)-4-(((1R)-3-(morpholin-4-yl)-1-((phenylsulfanyl)methyl)propyl)amino)benzenesulfonamide in 10:90 DMSO/PEG 400 (by volume) by oral gavage. […]

| Compound | binding to Bcl-w (Bcl-w) | binding to Bcl-XL (Bcl-XL) | binding to Bcl-2 (Bcl-2) | circulating platelet count, multiple oral dosing (circulating platelets [1]) | PS (phosphotidyl serine) externalization (platelets) | caspase 3 activation (platelets) | cytochrome c release (platelets) | aggregation of isolated platelets (isolated platelets) | viability of platelets (dog platelets) | viability of platelets (human platelets) | circulating platelet count (circulating platelets [2]) |
| --- | --- | --- | --- | --- | --- | --- | --- | --- | --- | --- | --- |
| CN(C)CC[C@H](CSc1ccccc1)Nc1ccc(S(=O)(=O)NC(=O)c2ccc(N3CCN(Cc4ccccc4-c4ccc(Cl)cc4)CC3)cc2)cc1[N+](=O)[O-] [EXAMPLE 7, N-(4-(4-((4′-chloro(1,1′-biphenyl)-2-yl)methyl)piperazin-1-yl)benzoyl)-4-(((1R)-3-(dimethylamino)-1-((phenylsulfanyl)methyl)propyl)amino)-3-nitrobenzenesulfonamide] | capable of binding | capable of binding | capable of binding |  |  |  |  |  |  |  |  |
| CC1(C)CCC(c2ccc(Cl)cc2)=C(CN2CCN(c3ccc(C(=O)NS(=O)(=O)c4ccc(N[C@H](CCN5CCOCC5)CSc5ccccc5)c(S(=O)(=O)C(F)(F)F)c4)cc3)CC2)C1 [EXAMPLE 2, N-(4-(4-((2-(4-chlorophenyl)-5,5-dimethyl-1-cyclohex-1-en-1-yl)methyl)piperazin-1-yl)benzoyl)-4-(((1R)-3-(morpholin-4-yl)-1-((phenylsulfanyl)methyl)propyl)amino)-3-((trifluoromethyl)sulfonyl)benzenesulfonamide] | capable of binding | capable of binding | capable of binding | proportionate effect | activated | activated | activated | did not induce | reduced | reduced |  |
| CC1(C)CCC(CN2CCN(c3ccc(C(=O)NS(=O)(=O)c4ccc(N[C@H](CCN5CCOCC5)CSc5ccccc5)c(S(=O)(=O)C(F)(F)F)c4)cc3)CC2)=C(c2ccc(Cl)cc2)C1 [EXAMPLE 6, N-(4-(4-((2-(4-chlorophenyl)-4,4-dimethylcyclohex-1-en-1-yl)methyl)piperazin-1-yl)benzoyl)-4-(((1R)-3-(morpholin-4-yl)-1-((phenylsulfanyl)methyl)propyl)amino)-3-((trifluoromethyl)sulfonyl)benzenesulfonamide] |  |  |  |  |  |  |  |  |  |  | rapid reduction in circulating platelet count |
